Laboratory results taken from PubChem BioAssay AID624270 (Broad Institute, 2012).
Activity calls are given as the source filed them. How the calls were made is not given here.

Legend:
[1] = V cholerae BH1578 lux luminescence, light production inducers, dose response, confirmatory, 6 h (AID 624270); conditions: V. cholerae BH1578 lux luminescence, 6 h; at 35 µM (top of the series)
[2] = system: V. cholerae BH1578 lux luminescence, 6 h; test: as above

Row | Structure (SMILES) | activation (light induction) [1] | AC50 [2]
1 | CCn1c(CC(=O)Nc2cccc(Cl)c2Cl)nnc1SCCOc1ccc(OC)cc1 | 1.79% (inactive) | 
2 | O=C(Cc1ccc(-c2ccccc2)cc1)NC1CCCC1 |  | 104 nM
3 | Cc1ccc(CC(=O)NC2CCCC2)cc1 | 15.8% (inactive) | 
4 | Cc1ccc(OCCNC(=O)c2cccc(C)c2)cc1 |  | 96 nM
5 | COc1ccccc1NC(=O)COC(=O)c1ccc(C)cc1 |  | 397 nM
6 | Cc1ccc2cc3c(NC(=O)c4ccco4)nn(C)c3nc2c1 |  | 2870 nM
7 | COc1ccc(Cl)cc1NC(=O)COC(=O)c1ccc(C)o1 |  | 63.8 nM
8 | CCOc1ccc(Nc2ccc3nonc3c2[N+](=O)[O-])cc1 |  | 183 nM
9 | O=C(Nc1nnc(-c2ccc3c(c2)OCCO3)o1)C1CCCCC1 |  | 1380 nM
10 | CCCn1nnnc1NCc1ccc(N(CC)CC)cc1 |  | 54.8 nM
11 | O=c1ncn(-c2cccc(Cl)c2)c2ccccc12 |  | 1.29 nM
12 | CCC(C)NC(=O)Cc1ccc(-c2ccccc2)cc1 (stereo not given) |  | 1240 nM
13 | CCCn1nnnc1NCc1ccc(C(C)C)cc1 |  | 45.2 nM
14 | COc1ccccc1NC(=O)COC(=O)c1cc2c(s1)CCC2 |  | 66.2 nM
15 | CCn1nnnc1NCc1ccc(N2CCCC2)cc1 |  | 4.14 nM
16 | CCCn1nnnc1NCc1ccc(N2CCCC2)cc1 |  | 13.8 nM
17 | CCCn1nnnc1NCc1ccccc1Cl | 1.22% (inactive) | 
18 | COc1ccccc1NC(=O)COC(=O)c1oc2ccccc2c1C |  | 1570 nM
19 | Cc1c(Cl)cccc1-n1cnc(=O)c2ccccc21 |  | > 35000 nM (inactive)
20 | CCn1nnc(NCc2ccc(C)cc2)n1 | 0.27% (inactive) | 
